Results reported in PubChem BioAssay AID489035 (Sanford-Burnham Center for Chemical Genomics, 2010).
Calls of active or inactive are those of the source. How the calls were made is not given here.

System: Jurkat NF-kB reporter, TCR-induced, luciferase luminescence
Test: inhibitors of TCR-driven NF-kB activation, dose response, Jurkat cells, luminescence (AID 489035)

Structure (SMILES) | IC50
COc1cc2c(cc1O)CC[C@@H]1[C@@H]2CC[C@]2(C)[C@@H](O)CC[C@@H]12 | > 80 µM (inactive)
c1ccc2c(c1)CCN(c1ncnc3c1[nH]c1ccccc13)C2 | 24.2 µM (inactive)
CCOC(=O)c1[nH]c(C)c(C(=O)OCC(=O)NC(C)c2ccc(F)cc2)c1C (stereo not drawn) | > 80 µM (inactive)
O=C(c1ccc(Br)cc1)c1cc([N+](=O)[O-])ccc1N1CCOCC1 | 64.3 µM (inactive)
COc1ccc(/C=N/Nc2cc(C)nc3ccc(OC)cc23)c(OC)c1 | 2.4 µM
Cc1c(C(=O)N/N=C/c2c(O)ccc3ccccc23)nnn1-c1nonc1N | > 80 µM (inactive)
Cc1cc(=O)oc2cc(OCC3CC(c4ccccc4Cl)=NO3)ccc12 (stereo not drawn) | > 80 µM (inactive)
CC1(C)C[C@H]2C=C(C=O)[C@]3(C=O)C[C@]3(C)[C@H]2C1 | 9.17 µM
CC(=O)Nc1ccc(S(=O)(=O)N2CCCc3ccccc32)cc1 | > 80 µM (inactive)
CC(C)CC[n+]1ccccc1/C=C/c1ccc(N(C)C)cc1 | > 80 µM (inactive)
CSc1nccc(-c2nn(-c3ccc(C)cc3)ccc2=O)n1 | 33.3 µM (inactive)
CCC(C)C(=O)N[C@@H](c1ccccc1)[C@@H](O)C(=O)O[C@H]1C[C@@]2(O)[C@@H](OC(=O)c3ccccc3)C3[C@](C)(C(=O)[C@H](OC(C)=O)C(=C1C)C2(C)C)[C@@H](O)C[C@H]1OC[C@@]31OC(C)=O (stereo partly drawn) | > 80 µM (inactive)
CC[C@@]1(O)C(=O)OCc2c1cc1n(c2=O)Cc2cc3c(N)cccc3nc2-1 | < 0.16 µM
Oc1ccccc1N=Nc1nc(-c2ccccc2)c(-c2ccccc2)[nH]1 | 0.82 µM
COc1ccc(OC)c(Nc2cc(-c3ccccc3)nc(N)n2)c1 | 26.9 µM (inactive)
N/C(=N\OCc1ccc([N+](=O)[O-])cc1)c1ccccn1 | 0.67 µM
O=c1cc(-c2cccc(F)c2)[nH]c2ccccc12 | > 80 µM (inactive)
CCCCCCCOc1ccc(OC(=O)c2cccnc2)cc1 | > 80 µM (inactive)
COc1cccc(N/C(N)=N/c2nc(CSc3ccccn3)cc(=O)[nH]2)c1 | 4.67 µM
CCCCCCCCn1c2c(c(=N)c3c1CCC3)CCCC2 | 4.63 µM
Cc1ccc(C(=O)Nc2cccc(C(=O)O)c2)cc1 | 3.03 µM
O=C(Nc1ccc(Cl)c(S(=O)(=O)N2CCOCC2)c1)c1ccc(OCC2CCCO2)cc1 (stereo not drawn) | 18.3 µM
COc1cc2nc(NC(=O)c3ccco3)sc(=O)c2cc1OC | 0.47 µM

Structure (SMILES) | IC50
CC(C)c1oc(=O)cc2c1[C@@H](O)[C@H]1OC(=O)[C@@]3(C)C[C@@H](O)[C@@H](O)[C@@]2(C)C13 (stereo partly drawn) | 1.08 µM
COc1ccc(Cl)cc1NC(=O)CN(C)CC(=O)Nc1ccccc1N1CCOCC1 | 41.5 µM (inactive)
C/C=C(\C)C(=O)N[C@@H](c1ccccc1)[C@@H](O)C(=O)O[C@H]1C[C@@]2(O)[C@@H](OC(=O)c3ccccc3)C3[C@](C)(C(=O)[C@H](O)C(=C1C)C2(C)C)[C@@H](O)C[C@H]1OC[C@@]31OC(C)=O (stereo partly drawn) | > 80 µM (inactive)
Cc1cccc(N2CCN(C(=O)c3c(-c4ccccc4)noc3C)CC2)c1C | > 80 µM (inactive)
CCN1C=CC(=C2C(=O)c3ccccc3C2=O)C=C1 | 1.03 µM
COc1cc(C2c3cc4c(cc3CC3COC(=O)C32)OCO4)cc(OC)c1OC (stereo not drawn) | > 80 µM (inactive)
CCc1ccc(N2C(=O)C(Cl)=C(Nc3ccc(C(=O)N4CCCC4)cc3)C2=O)cc1 | 6.33 µM
CCOC(=O)Nc1nc(-c2ccccc2)c(C(=O)c2ccc(Cl)cc2)s1 | 4.16 µM
Cc1cccc(N2CCN(C(=O)c3ccc(S(=O)(=O)N(C)c4ccccc4)cc3)CC2)c1C | > 80 µM (inactive)
COc1ccc(OC)c(NS(=O)(=O)c2ccc(N3CCCC3=O)cc2)c1 | > 80 µM (inactive)
Cc1ccc(O)c(N=Nc2nccs2)c1 | 1.79 µM
CCO[C@@H]1OC(C(=O)NCc2nc3ccccc3[nH]2)=C[C@H](C(C)(C)C)[C@H]1CCCO | > 80 µM (inactive)
Oc1ccc2ccccc2c1N=Nc1ccccn1 | 1.96 µM
COc1cc(/C=C/C(=O)c2ccc([N+](=O)[O-])o2)ccc1O | 1.86 µM
CCOc1ccc(N(C)S(=O)(=O)c2ccc(-c3cc(C)no3)s2)cc1 | > 80 µM (inactive)
O=C(N[C@@H](Cc1ccccc1)C(=O)CCl)OCc1ccccc1 | 0.54 µM
CC(C)Nc1ccc(C(CC(N)=O)NC(=O)Cc2ccc(Br)cc2)cc1[N+](=O)[O-] (stereo not drawn) | 1.71 µM
COc1cc(-c2noc(C)c2/C=C/c2ccc(OC(C)=O)cc2)cc(OC)c1OC | 31.5 µM (inactive)
O=C(Nc1nc2ccc(S(=O)(=O)N3CCCC3)cc2s1)C1CCCCC1 | > 80 µM (inactive)
COc1ccc(C(=O)N(C)Cc2cnn(Cc3ccccc3)c2)cc1S(=O)(=O)N1CCOCC1 | > 80 µM (inactive)
O=C(N/N=C/c1c(O)ccc2ccccc12)c1cccc(C(F)(F)F)c1 | 10.4 µM
C=CCOC(=O)c1[nH]c2c(c1C)C(=O)CC(c1ccco1)C2 (stereo not drawn) | > 80 µM (inactive)
CC/C=C/CC(=O)N[C@@H](c1ccccc1)[C@@H](O)C(=O)O[C@H]1C[C@@]2(O)[C@@H](OC(=O)c3ccccc3)C3[C@](C)(C(=O)[C@H](OC(C)=O)C(=C1C)C2(C)C)[C@@H](O)C[C@H]1OC[C@@]31OC(C)=O (stereo partly drawn) | > 80 µM (inactive)

Structure (SMILES) | IC50
CCOC(=O)c1c(C)[nH]c(C(=O)N/N=C/c2ccc(Br)cc2)c1C | 9.36 µM
CCOC(=O)CC1CCCCN1C(=O)c1cc(COc2cccc3cnccc23)on1 (stereo not drawn) | 6.39 µM
O=C(Nc1ccc(S(=O)(=O)Nc2ccccc2)cc1)c1ccc(CN2CCOCC2)cc1 | 29.5 µM (inactive)
Cc1cc2c(cc1C)C(c1ccccc1OC(C)C)CC(=O)N2 (stereo not drawn) | 7.61 µM
COc1ccc(-n2cc(-c3ccc(C)cc3)[n+]3c2SCC3)cc1 | > 80 µM (inactive)
CCC(=O)N1c2ccc(S(=O)(=O)N3CCN(c4ccc([N+](=O)[O-])cc4)CC3)cc2CC1C (stereo not drawn) | > 80 µM (inactive)
Cc1ccc(NC(=O)c2cc3ccccc3oc2=O)cc1S(=O)(=O)N(C)C | 0.98 µM
CCCCN1/C(=C/c2ccc3ccccc3[n+]2CC)Sc2ccccc21 | > 80 µM (inactive)
COc1ccc(-c2c(C#N)c(N)nc3c2CCc2ccccc2-3)cc1OC | 53.6 µM (inactive)
Cc1ccc(C(=O)Nc2cc3ccccc3oc2=O)cc1 | 0.32 µM
CCCOc1ccc(/C=N/Nc2cc(N3CCOCC3)ncn2)c(O)c1 | 10 µM
COc1cccc(-c2cc(=O)c3cc(NC(=O)c4ccc(N(C)C)cc4)ccc3[nH]2)c1 | 6.22 µM
Clc1ccc2c(c1)C(C1=NCCN1)c1ccccc1CS2 (stereo not drawn) | 58.5 µM (inactive)
Cc1ccc(O)c(NC(=O)CCC2CCCCC2)c1 | > 80 µM (inactive)
CCCC1=Nc2cc(C(=O)NCCCOCC)ccc2Sc2ccccc21 | 24 µM (inactive)
Cc1cc(NC(=O)CSc2nc3c(sc4ccccc43)c(=O)n2CCCN2CCOCC2)n[nH]1 | > 80 µM (inactive)
CCN(CC)c1ccc(/C=N/NC(=O)c2nnn(-c3nonc3N)c2C(C)C)c(O)c1 | 2.02 µM
CC(C)(C)c1csc(Sc2ccc([N+](=O)[O-])cn2)n1 | 3.24 µM
O=C(c1ccc(Cl)cc1)c1cc([N+](=O)[O-])ccc1N1CCOCC1 | > 80 µM (inactive)
CCOCCOC(=O)c1[nH]c2c(c1C)C(=O)CC(c1cccs1)C2 (stereo not drawn) | > 80 µM (inactive)
CCOC(=O)c1[nH]c2c(c1C)C(=O)CC(c1ccco1)C2 (stereo not drawn) | > 80 µM (inactive)
COc1ccccc1N=C(C)C1=C(O)CC(c2ccccc2)CC1=O (stereo not drawn) | > 80 µM (inactive)
